Data published in the supplement of paper PMC10307832.

What was measured:
Experiment in all cases: relative viability (nuclei count vs DMSO), 5 days (fraction); higher = more cells survive
[1] = compound: CC1=CC=C(C=C1)C(=O)CN2C3=C(CCCC3)SC2=N [Pifithrin_alpha] + Nc1nc2[nH]cc(CCc3ccc(C(=O)N[C@@H](CCC(=O)O)C(=O)O)cc3)c2c(=O)[nH]1 [Pemetrexed] (partner 0.2 µM)
Procedure, shortened: (§1)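 For relative viability, nuclei counts in treated wells were divided by those in vehicle wells. Lung cancer cell lines had been pin-tool dosed in 1536-well plates the day after seeding and cultured for 5 days, then fixed and stained in one step (final 0.05% Triton X-100, 1% formaldehyde, 1 ug/ml Hoechst) and imaged at 4×. Doses were one drug alone or a fixed anchor-drug dose plus five library-drug doses (not always all listed) in √10 steps, and values are duplicate-plate medians.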

Axitinib + Pictilisib = compound: CNC(=O)c1ccccc1Sc1ccc2c(/C=C/c3ccccn3)n[nH]c2c1 [Axitinib] + CS(=O)(=O)N1CCN(Cc2cc3nc(-c4cccc5[nH]ncc45)nc(N4CCOCC4)c3s2)CC1 [Pictilisib] (partner 1 µM)
Procedure, shortened: as §1

[2] = compound: CC1=CC=C(C=C1)C(=O)CN2C3=C(CCCC3)SC2=N [Pifithrin_alpha] + O=C(CCCCCCC(=O)Nc1ccccc1)NO [Vorinostat] (partner 1 µM)
Procedure, shortened: as §1

[3] = compound: CC1=CC=C(C=C1)C(=O)CN2C3=C(CCCC3)SC2=N [Pifithrin_alpha] + COc1cccc2cc(-c3nc([C@H]4CC[C@H](C(=O)O)CC4)n4ncnc(N)c34)[nH]c12 [OSI-027] (partner 0.5 µM)
Procedure, shortened: as §1

NCI-H1755 was tested, and the relative viability ([1]; first compound 1 µM) was 0.417, the relative viability ([1]; first compound 3.162 µM) was 0.445 and the relative viability ([1]; first compound 10 µM) was 0.381. It also gave a relative viability ([1]; first compound 31.62 µM) of 0.342, a relative viability ([1]; first compound 100 µM) of 0.446 and a relative viability (Axitinib + Pictilisib; first compound 0.005 µM) of 0.482. It also gave a relative viability (Axitinib + Pictilisib; first compound 0.01581 µM) of 0.418, a relative viability (Axitinib + Pictilisib; first compound 0.05 µM) of 0.55 and a relative viability (Axitinib + Pictilisib; first compound 0.1581 µM) of 0.4. The relative viability (Axitinib + Pictilisib; first compound 0.5 µM) was 0.454, the relative viability ([2]; first compound 1 µM) was 0.773 and the relative viability ([2]; first compound 3.162 µM) was 0.853. It also gave a relative viability ([2]; first compound 10 µM) of 0.694, a relative viability ([2]; first compound 31.62 µM) of 0.599 and a relative viability ([2]; first compound 100 µM) of 0.724. For the same cell line, the relative viability ([3]; first compound 1 µM) was 0.57, the relative viability ([3]; first compound 3.162 µM) was 0.687 and the relative viability ([3]; first compound 10 µM) was 0.675. It also gave a relative viability ([3]; first compound 31.62 µM) of 0.525 and a relative viability ([3]; first compound 100 µM) of 0.566.
Work on NCI-H1793 yielded a relative viability ([1]; first compound 1 µM) of 0.538, a relative viability ([1]; first compound 3.162 µM) of 0.79 and a relative viability ([1]; first compound 10 µM) of 0.888. The relative viability ([1]; first compound 31.62 µM) was 0.671, the relative viability ([1]; first compound 100 µM) was 0.695 and the relative viability (Axitinib + Pictilisib; first compound 0.005 µM) was 0.258. The relative viability (Axitinib + Pictilisib; first compound 0.01581 µM) was 0.253, the relative viability (Axitinib + Pictilisib; first compound 0.05 µM) was 0.326 and the relative viability (Axitinib + Pictilisib; first compound 0.1581 µM) was 0.307. It also gave a relative viability (Axitinib + Pictilisib; first compound 0.5 µM) of 0.256, a relative viability ([2]; first compound 1 µM) of 0.674 and a relative viability ([2]; first compound 3.162 µM) of 0.571. For the same cell line, the relative viability ([2]; first compound 10 µM) was 0.655, the relative viability ([2]; first compound 31.62 µM) was 0.753 and the relative viability ([2]; first compound 100 µM) was 0.46. For the same cell line, the relative viability ([3]; first compound 3.162 µM) was 0.249, the relative viability ([3]; first compound 10 µM) was 0.201 and the relative viability ([3]; first compound 31.62 µM) was 0.218. The relative viability ([3]; first compound 100 µM) was 0.198.
With NCI-H1915 the relative viability ([1]; first compound 1 µM) was 0.478, the relative viability ([1]; first compound 3.162 µM) was 0.547 and the relative viability ([1]; first compound 10 µM) was 0.441. For the same cell line, the relative viability ([1]; first compound 100 µM) was 0.598, the relative viability (Axitinib + Pictilisib; first compound 0.005 µM) was 0.966 and the relative viability (Axitinib + Pictilisib; first compound 0.01581 µM) was 0.994. The relative viability (Axitinib + Pictilisib; first compound 0.05 µM) was 0.999, the relative viability (Axitinib + Pictilisib; first compound 0.1581 µM) was 0.888 and the relative viability (Axitinib + Pictilisib; first compound 0.5 µM) was 0.88. It also gave a relative viability ([2]; first compound 1 µM) of 0.456, a relative viability ([2]; first compound 3.162 µM) of 0.527 and a relative viability ([2]; first compound 10 µM) of 0.418. It also gave a relative viability ([2]; first compound 100 µM) of 0.543, a relative viability ([3]; first compound 1 µM) of 0.567 and a relative viability ([3]; first compound 3.162 µM) of 0.628. For the same cell line, the relative viability ([3]; first compound 100 µM) was 0.584.
NCI-H1944 gave a relative viability ([1]; first compound 1 µM) of 0.562, a relative viability ([1]; first compound 3.162 µM) of 0.55 and a relative viability ([1]; first compound 10 µM) of 0.59. It also gave a relative viability ([1]; first compound 31.62 µM) of 0.457, a relative viability ([1]; first compound 100 µM) of 0.512 and a relative viability (Axitinib + Pictilisib; first compound 0.005 µM) of 0.356. The relative viability (Axitinib + Pictilisib; first compound 0.01581 µM) was 0.336, the relative viability (Axitinib + Pictilisib; first compound 0.05 µM) was 0.357 and the relative viability (Axitinib + Pictilisib; first compound 0.1581 µM) was 0.351. For the same cell line, the relative viability (Axitinib + Pictilisib; first compound 0.5 µM) was 0.357, the relative viability ([2]; first compound 1 µM) was 0.503 and the relative viability ([2]; first compound 3.162 µM) was 0.572. The relative viability ([2]; first compound 10 µM) was 0.505, the relative viability ([2]; first compound 31.62 µM) was 0.351 and the relative viability ([2]; first compound 100 µM) was 0.395. It also gave a relative viability ([3]; first compound 1 µM) of 0.346, a relative viability ([3]; first compound 3.162 µM) of 0.362 and a relative viability ([3]; first compound 10 µM) of 0.351. For the same cell line, the relative viability ([3]; first compound 31.62 µM) was 0.252 and the relative viability ([3]; first compound 100 µM) was 0.293.
For NCI-H1975, the relative viability ([1]; first compound 1 µM) was 0.285, the relative viability ([1]; first compound 3.162 µM) was 0.277 and the relative viability ([1]; first compound 10 µM) was 0.27. For the same cell line, the relative viability ([1]; first compound 31.62 µM) was 0.212, the relative viability ([1]; first compound 100 µM) was 0.228 and the relative viability (Axitinib + Pictilisib; first compound 0.005 µM) was 0.334. The relative viability (Axitinib + Pictilisib; first compound 0.01581 µM) was 0.311, the relative viability (Axitinib + Pictilisib; first compound 0.05 µM) was 0.365 and the relative viability (Axitinib + Pictilisib; first compound 0.1581 µM) was 0.317. It also gave a relative viability (Axitinib + Pictilisib; first compound 0.5 µM) of 0.377, a relative viability ([2]; first compound 1 µM) of 0.626 and a relative viability ([2]; first compound 3.162 µM) of 0.708. For the same cell line, the relative viability ([2]; first compound 10 µM) was 0.579, the relative viability ([2]; first compound 31.62 µM) was 0.54 and the relative viability ([2]; first compound 100 µM) was 0.529. It also gave a relative viability ([3]; first compound 1 µM) of 0.731, a relative viability ([3]; first compound 3.162 µM) of 0.583 and a relative viability ([3]; first compound 10 µM) of 0.319. The relative viability ([3]; first compound 31.62 µM) was 0.309 and the relative viability ([3]; first compound 100 µM) was 0.276.
Cell Line NCI-H1993 has a relative viability ([1]; first compound 1 µM) of 0.844, a relative viability ([1]; first compound 3.162 µM) of 0.547 and a relative viability ([1]; first compound 10 µM) of 0.669. The relative viability ([1]; first compound 31.62 µM) was 0.452, the relative viability ([1]; first compound 100 µM) was 0.479 and the relative viability (Axitinib + Pictilisib; first compound 0.005 µM) was 0.763. For the same cell line, the relative viability (Axitinib + Pictilisib; first compound 0.01581 µM) was 0.952, the relative viability (Axitinib + Pictilisib; first compound 0.05 µM) was 0.805 and the relative viability (Axitinib + Pictilisib; first compound 0.1581 µM) was 0.772. It also gave a relative viability (Axitinib + Pictilisib; first compound 0.5 µM) of 0.781, a relative viability ([2]; first compound 1 µM) of 0.771 and a relative viability ([2]; first compound 3.162 µM) of 0.607. The relative viability ([2]; first compound 10 µM) was 0.754, the relative viability ([2]; first compound 31.62 µM) was 0.627 and the relative viability ([2]; first compound 100 µM) was 0.793. The relative viability ([3]; first compound 1 µM) was 0.509, the relative viability ([3]; first compound 3.162 µM) was 0.537 and the relative viability ([3]; first compound 10 µM) was 0.571. For the same cell line, the relative viability ([3]; first compound 31.62 µM) was 0.65 and the relative viability ([3]; first compound 100 µM) was 0.59.
NCI-H2009 showed a relative viability ([1]; first compound 1 µM) of 0.985, a relative viability ([1]; first compound 3.162 µM) of 1.01 and a relative viability ([1]; first compound 10 µM) of 0.949. It also gave a relative viability ([1]; first compound 31.62 µM) of 0.702, a relative viability ([1]; first compound 100 µM) of 0.944 and a relative viability (Axitinib + Pictilisib; first compound 0.005 µM) of 0.875. The relative viability (Axitinib + Pictilisib; first compound 0.01581 µM) was 0.877, the relative viability (Axitinib + Pictilisib; first compound 0.05 µM) was 1 and the relative viability (Axitinib + Pictilisib; first compound 0.1581 µM) was 0.868. For the same cell line, the relative viability (Axitinib + Pictilisib; first compound 0.5 µM) was 1.04, the relative viability ([2]; first compound 1 µM) was 0.697 and the relative viability ([2]; first compound 3.162 µM) was 0.715. It also gave a relative viability ([2]; first compound 10 µM) of 0.601, a relative viability ([2]; first compound 31.62 µM) of 0.399 and a relative viability ([2]; first compound 100 µM) of 0.57. It also gave a relative viability ([3]; first compound 1 µM) of 0.601, a relative viability ([3]; first compound 3.162 µM) of 0.663 and a relative viability ([3]; first compound 10 µM) of 0.62. The relative viability ([3]; first compound 31.62 µM) was 0.431 and the relative viability ([3]; first compound 100 µM) was 0.456.
NCI-H2023 was tested, and the relative viability ([1]; first compound 1 µM) was 0.28, the relative viability ([1]; first compound 3.162 µM) was 0.254 and the relative viability ([1]; first compound 10 µM) was 0.215. The relative viability ([1]; first compound 31.62 µM) was 0.157, the relative viability ([1]; first compound 100 µM) was 0.153 and the relative viability (Axitinib + Pictilisib; first compound 0.005 µM) was 0.232. For the same cell line, the relative viability (Axitinib + Pictilisib; first compound 0.01581 µM) was 0.195, the relative viability (Axitinib + Pictilisib; first compound 0.05 µM) was 0.267 and the relative viability (Axitinib + Pictilisib; first compound 0.1581 µM) was 0.222. The relative viability (Axitinib + Pictilisib; first compound 0.5 µM) was 0.272, the relative viability ([2]; first compound 1 µM) was 0.726 and the relative viability ([2]; first compound 3.162 µM) was 0.577. The relative viability ([2]; first compound 10 µM) was 0.545, the relative viability ([2]; first compound 31.62 µM) was 0.334 and the relative viability ([2]; first compound 100 µM) was 0.464. For the same cell line, the relative viability ([3]; first compound 1 µM) was 0.305, the relative viability ([3]; first compound 3.162 µM) was 0.3 and the relative viability ([3]; first compound 10 µM) was 0.204. The relative viability ([3]; first compound 100 µM) was 0.213.
